Measurements taken from patent US20260328779A1, “METHODS AND COMPOSITIONS FOR THE DIAGNOSIS AND TREATMENT OF IGA NEPHROPATHY” (Beth Israel Deaconess Medical Center, Inc., priority 2022, published 2026).

Legend:
[1] = test system: anti-Tn CICs; experiment: Dissociation of anti-Tn CICs by glycomimetic treatment (BN-APAGE-WB); type: biochemical, human; conditions: 100 mM, 2 h at 4° C.; anti-Tn CICs from IgAN patients
Description: Furthermore, it was tested whether the anti-Tn IgM immune complexes can be dissociated from Tn(+)IgA1 using compounds that mimic the Tn antigen-glycomimetics. For this purpose, the anti-Tn CICs were affinity-purified from the sera of IgAN patients; the anti-Tn CICs were treated with mock, α-methylGalNAc (glycomimetic compound, αGalNAc), or α-methylGlcNAc (control compound, αGlcNAc), followed by BN-APAGE-WB and probing for IgM, and IgA. […] An IgA1 signal was unable to be detected in mock and α-methylGlcNAc-treated samples (FIG. 5F, lane 1 and 3, bottom), indicating the IgA1 epitopes may be buried within the CICs and thus not available in this native page set-up for WB detection.
Samples (~0.1 mg) or for plain serum (1:200 dilution in PBS, […]) run on BN-APAGE were transferred onto activated PVDF membrane (Cat #IPVH00010, EMD Millipore, wet-transfer system, 40 V for 2 h). The membranes were quickly destained with 100% methanol, washed with TBST, and blocked with 5% (w/vol) non-fat milk in TBST for 1 h at RT. […]
For glycomimetic treatment, purified anti-Tn CICs (~0.1 mg) was pretreated with α-methylGalNAc (100 mM), α-methylGlcNAc (100 mM), or mock in PBS for 2 h at 4° C. on a rotator (10 rpm) and the samples were analyzed by BN-APAGE-WB and probed for IgM and IgA.

[2] = test system: anti-Tn IgM; experiment: Inhibition of anti-Tn antibody binding to Tn glycopeptide array; set-up: species or system human; conditions: glycomimetic 20 mM, 30 min at RT, anti-Tn antibodies C3
Description: The Tn glycopeptide microarray was prepared as previously described^77. Briefly, the glycopeptides printed on the microarray is as listed (FIG. 2). Purified anti-Tn antibodies (diluted to […] for IgM, and […] for IgG and IgA detection) in TSM binding buffer (20 mM Tris-HCl, pH 7.4, 150 mM NaCl, 2 mM CaCl2), 2 mM MgCl2, with 1% BSA and 0.05% Tween-20) were added to the respective array slides for 1 h at RT. Alexa Fluor #488-labeled goat anti-human IgM or goat anti-human IgG, or FITC-labeled goat anti-human IgA antibody at 1:400 dilution in TSM binding buffer was used for detection of IgM, IgG, and IgA within purified anti-Tn antibodies. Slides were analyzed on a Genepix^# 4300A microarray scanner (Molecular Devices). Images were analyzed with quantitation software (GenePix® Pro Microarray Analysis Software Ver. 7, Molecular Devices). For inhibition assay, a purified Tn(+)IgA1 produced from CosmcKO Dakiki cells was utilized (See Generation of CosmcKO Dakiki cells using CRISPR-Cas9 system for generating the antibody) to inhibit anti-Tn antibodies binding to microarray and Tn(−)IgA1 produced from Dakiki cells as a […]. Purified anti-Tn antibodies (Cl, 10 mg/ml) in TSM binding buffer was preincubated with 1 mg of purified Tn(+)IgA1, or Tn(−)IgA1 for 30 min at RT. […] Heat map and correlation map of binding preferences were analyzed using GLAD (Glycan Array Dashboard).

For `CO[C@H]1O[C@H](CO)[C@H](O)[C@H](O)[C@H]1NC(C)=O` [α-methylGalNAc], the “dissociation of Tn(+)IgA1 from anti-Tn CICs” value [1] was “caused dissociation of the Tn(+)IgA1 from anti-Tn IgM immune complexes” and the “inhibition of anti-Tn antibody (IgM) binding to Tn glycopeptide array” value [2] was “specifically inhibited binding of the anti-Tn IgM”.
